These results are taken from patent US11369584B2, “Andrographolide derivatives and method of using the same for treatment or prevention of fibrosis” (Zhengzhou University, priority 2017, dated 2022).

Assay [1] deals with SD rats with liver fibrosis induced by CCl4. Briefly: CCl4-induced liver fibrosis in SD rats. It is filed as in vivo. Conditions: ELISA. As for the experimental part:
SD rats were fed ad libitum for 3 days, and then randomly divided into normal group and model group. Subcutaneous injection of 40% CCl4 of soybean oil to the rats of model group for the first time. Following an initial dose of 4 mL/kg, each subsequent dose was 2 mL/kg, 2 times every week. The corresponding volumes of soy oil were injected subcutaneously to the normal group. After 4 weeks of modeling, except for the normal group, other rats were weighed individually and then randomly divided into eight rats per group. The dosages of andrographolide, oxymatrine, silibinin and the compound A of the disclosure were both 20 mg/kg, and the doses of other compounds were the same molar mass as compound A, and the model group and the normal group were given an equal amount of 0.5% CMC-Na. During the 5th and 6th weeks of the experiment, modeling and administration were carried out simultaneously, furthermore, the modeling was stopped at the 7th and 8th weeks, while the administered continued to carry out. Drugs were administrated by gavage on an empty stomach in the morning every day, and were given daily for 10 days followed by 1-day break. The bedding of the rats should be replaced at the first 8 hours of the last gavage, strictly fasting with nothing but water. After 1 h of administration, an anesthetic of 3% pentobarbital sodium (2 mL/kg) was intraperitoneally injected. […] Image-Pro Plus software performed semi-quantitative analysis of fibrosis histology on the photographs of Masson stained sections. […] The expression of α-SMA (a marker of the degree of HSC activation) in liver tissue was evaluated by immunohistochemistry, and the positive expression was quantified using Image-Pro Plus, the results were shown in FIGS. 6 and 7. Data were processed and analyzed using SPSS 17.0 statistical software. Data were expressed as mean±standard deviation (X±S); There were significant differences between groups when P<0.05. The levels of LN, C-I, PC-III and C-IV in the serum of the animals were determined by ELISA using the compound H of the disclosure as a representative. Data were processed and analyzed using SPSS 17.0 statistical software. Data were expressed as mean±standard deviation (X±S); There were significant differences between groups when P<0.05. The level of IL-6 and TNF-α in the serum of the animal was determined by ELISA using the compound H of the disclosure as a representative, the results were shown in FIGS. 20 and 21. Data were processed and analyzed using SPSS 17.0 statistical software. Data were expressed as mean±standard deviation (X±S); There were significant differences between groups when P<0.05. The level of SOD and MDA in the liver tissue of the animal was determined by the compound H of the disclosure, the results were shown in FIGS. 22 and 23. […]

Assay [2] relates to human proximal tubular epithelial cells HK-2. Briefly: TGF-β1-induced conversion of HK-2 cells to mesenchymal cells (morphological observation). It is filed as cell-based. Particulars: TGF-β1 5 ng/mL, 48 h, test concentrations 0.08-[…]. As for the experimental part:
Human proximal tubular epithelial cells HK-2 (provided by the China Center for Type Culture Collection) were used to study the in vitro anti-renal fibrosis effect of the compounds of the disclosure in comparison with andrographolide (AD). HK-2 cells were cultured in DMEM-F12 medium containing 10% (V/V) fetal bovine serum, 100 μg/mL streptomycin, and 100 IU/mL penicillin respectively, and then incubated in an incubator at 5% CO2 and 37° C., humidified atmosphere. HK-2 cells in logarithmic growth phase were digested with 0.25% (w/v) trypsin and 0.02% EDTA (W/V), and diluted into 5.0×10^6/mL cell suspension with DMEM-F12 medium containing 10% (v/v) fetal bovine serum. After each 96-well plate was filled with 200 μL cell suspension, the plates were placed in an incubator for 24 h in order to generate a single layer of cells. The original medium was discarded, and the cells were washed twice with PBS, and the medium without serum was added. After 24 h of re-synchronized, 200 μL of DMEM-F12 medium containing different concentrations of the test compound and the stimulating factor TGF-β1 (5 ng/mL) was added. Each treatment was repeated in 4 wells and control group was set up. After 48 h of incubation, the cells were photographed under a microscope.

SMILES strings stand for the structures.

Regarding `C=C1CC[C@@H]2[C@](C)(CO)[C@H](O)CC[C@@]2(C)[C@@H]1C/C=C1/C(=O)OC[C@H]1O` [AD, andrographolide], in assay [1], the “content of C-I in liver tissue” value is recorded as “significantly reduced” and the “content of C-IV in the serum” value is on record as “significantly reduced”. Also, in assay [2] (Table 1A), the Inhibitory effect entry is reported as “Medium” and the “Optimal effective dose range” value lay in the range of 0.31 to 1.25 µM. Further, in assay [2] (Table 1B), the Inhibitory effect result was “Medium” and the “Optimal effective dose range” value lay in the range of 0.31 to 1.25 µM.

`O=C1CCC[C@@H]2[C@H]3CCC[N+]4([O-])CCC[C@@H](CN12)[C@@H]34` (some centres unmarked) [Oxymatrine, oxymatrine]: in assay [1], the “content of C-I in liver tissue” value is given as “significantly reduced” and the “content of C-IV in the serum” value was “significantly reduced”.
